Measured values: US20220169598A1, “HALOGENATED PHENYLSULFONAMIDE HYDROXAMIC ACID COMPOUNDS, COMPOSITIONS AND USES THEREOF AS SELECTIVE HDAC6 INHIBITORS” (2681603 ONTARIO INC., priority 2019, published 2022)

How the values were obtained:
[1] = biological target: HDAC11 (Homo sapiens, UniProt Q96DB2); assay: in vitro activity-based HDAC assay; type: biochemical; conditions: human HDAC isoform panel, Table 1
[2] = biological target: HDAC3 (Homo sapiens, UniProt O15379); assay: in vitro activity-based HDAC assay; type: biochemical; conditions: human HDAC isoform panel, Table 1
Chain of HDAC3 (O15379 whole entry, canonical isoform): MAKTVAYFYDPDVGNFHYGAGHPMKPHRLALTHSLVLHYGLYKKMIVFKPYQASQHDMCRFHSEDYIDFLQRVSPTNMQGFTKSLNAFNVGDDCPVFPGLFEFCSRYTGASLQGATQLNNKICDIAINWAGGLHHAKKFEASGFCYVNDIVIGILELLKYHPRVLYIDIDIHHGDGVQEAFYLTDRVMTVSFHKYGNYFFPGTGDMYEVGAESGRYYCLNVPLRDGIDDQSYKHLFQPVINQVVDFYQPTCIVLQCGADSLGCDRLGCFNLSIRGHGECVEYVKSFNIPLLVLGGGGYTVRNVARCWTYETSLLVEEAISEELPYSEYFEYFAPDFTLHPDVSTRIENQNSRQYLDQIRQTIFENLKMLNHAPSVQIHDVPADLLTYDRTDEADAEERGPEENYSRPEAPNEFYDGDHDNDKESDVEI
Chain of HDAC3 (Q9Y618 395-489 partner limits assumed): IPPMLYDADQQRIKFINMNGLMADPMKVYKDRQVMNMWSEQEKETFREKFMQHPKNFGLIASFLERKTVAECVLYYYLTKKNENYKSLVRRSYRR

[3] = biological target: HDAC4 (Homo sapiens, UniProt P56524); assay: in vitro activity-based HDAC assay; type: biochemical; conditions: human HDAC isoform panel, Table 1
Chain of HDAC4 (P56524 whole entry, canonical isoform): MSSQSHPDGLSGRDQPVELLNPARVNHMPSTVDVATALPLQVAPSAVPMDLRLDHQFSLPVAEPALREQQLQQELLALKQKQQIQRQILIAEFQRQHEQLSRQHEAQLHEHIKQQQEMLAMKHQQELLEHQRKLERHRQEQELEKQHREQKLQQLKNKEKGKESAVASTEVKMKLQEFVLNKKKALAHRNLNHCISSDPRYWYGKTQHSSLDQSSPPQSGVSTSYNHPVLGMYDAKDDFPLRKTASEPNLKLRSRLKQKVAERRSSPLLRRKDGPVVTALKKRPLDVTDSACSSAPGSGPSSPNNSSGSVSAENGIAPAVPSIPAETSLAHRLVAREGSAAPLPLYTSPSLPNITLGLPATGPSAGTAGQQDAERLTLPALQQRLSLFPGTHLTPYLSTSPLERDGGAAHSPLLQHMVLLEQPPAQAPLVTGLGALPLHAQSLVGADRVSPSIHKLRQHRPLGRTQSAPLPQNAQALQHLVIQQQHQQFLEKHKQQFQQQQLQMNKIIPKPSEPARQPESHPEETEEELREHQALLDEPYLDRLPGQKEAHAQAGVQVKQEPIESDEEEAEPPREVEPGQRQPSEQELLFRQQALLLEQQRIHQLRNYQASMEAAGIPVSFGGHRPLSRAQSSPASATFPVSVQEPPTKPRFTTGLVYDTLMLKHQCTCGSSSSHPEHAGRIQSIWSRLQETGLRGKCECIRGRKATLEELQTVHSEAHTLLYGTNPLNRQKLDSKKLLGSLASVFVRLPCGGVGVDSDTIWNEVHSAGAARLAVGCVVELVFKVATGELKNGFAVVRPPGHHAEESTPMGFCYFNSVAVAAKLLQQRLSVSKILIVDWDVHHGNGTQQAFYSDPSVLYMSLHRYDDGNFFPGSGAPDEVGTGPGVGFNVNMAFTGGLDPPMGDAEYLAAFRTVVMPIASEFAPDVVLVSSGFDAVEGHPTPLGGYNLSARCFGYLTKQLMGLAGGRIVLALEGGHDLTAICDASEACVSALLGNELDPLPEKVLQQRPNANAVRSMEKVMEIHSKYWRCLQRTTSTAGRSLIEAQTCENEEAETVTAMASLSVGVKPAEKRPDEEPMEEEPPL

[4] = biological target: T1, HDAC7 (Homo sapiens, UniProt Q8WUI4); assay: in vitro activity-based HDAC assay; type: biochemical; conditions: human HDAC isoform panel, Table 1
T1 sequence (Q8WUI4 1-952): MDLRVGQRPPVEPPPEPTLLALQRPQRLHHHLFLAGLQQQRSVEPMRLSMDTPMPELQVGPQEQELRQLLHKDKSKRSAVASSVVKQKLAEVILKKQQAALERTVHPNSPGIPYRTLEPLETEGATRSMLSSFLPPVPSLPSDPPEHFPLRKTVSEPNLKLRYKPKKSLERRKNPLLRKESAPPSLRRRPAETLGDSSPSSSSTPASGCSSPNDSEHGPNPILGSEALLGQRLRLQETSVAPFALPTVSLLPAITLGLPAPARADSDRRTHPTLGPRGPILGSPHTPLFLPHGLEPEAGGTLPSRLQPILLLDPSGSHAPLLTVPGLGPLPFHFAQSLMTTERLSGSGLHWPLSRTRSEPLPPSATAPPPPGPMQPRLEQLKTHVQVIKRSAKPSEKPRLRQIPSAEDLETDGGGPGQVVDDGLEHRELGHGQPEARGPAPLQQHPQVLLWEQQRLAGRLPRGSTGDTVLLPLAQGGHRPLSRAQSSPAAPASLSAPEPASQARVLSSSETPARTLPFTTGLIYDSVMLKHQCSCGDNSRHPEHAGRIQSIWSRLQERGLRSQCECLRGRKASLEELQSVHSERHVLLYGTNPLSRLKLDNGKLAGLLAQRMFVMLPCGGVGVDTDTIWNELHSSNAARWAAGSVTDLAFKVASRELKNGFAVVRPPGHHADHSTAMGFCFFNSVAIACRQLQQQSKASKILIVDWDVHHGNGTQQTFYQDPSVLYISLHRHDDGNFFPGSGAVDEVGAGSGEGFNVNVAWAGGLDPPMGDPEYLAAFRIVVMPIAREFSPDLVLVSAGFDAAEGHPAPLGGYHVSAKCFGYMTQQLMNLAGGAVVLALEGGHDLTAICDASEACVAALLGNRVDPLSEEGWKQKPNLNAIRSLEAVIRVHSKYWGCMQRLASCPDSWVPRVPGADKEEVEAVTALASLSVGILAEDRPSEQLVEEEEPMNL

[5] = Plasma stability by LC-MS; type: in vitro ADME; conditions: mouse plasma
Method: The stability of select compounds of the application in plasma was assessed quantitatively through LC-MS and the results are shown in Table 6.

[6] = system: panel of 97 kinases; assay: Kinome screen; type: biochemical; conditions: kinase screen
[7] = biological target: HDAC1 (Homo sapiens, UniProt Q13547); assay: in vitro activity-based HDAC assay; type: biochemical; conditions: human HDAC isoform panel, Table 1
Chain of HDAC1 (Q13547 whole entry, canonical isoform): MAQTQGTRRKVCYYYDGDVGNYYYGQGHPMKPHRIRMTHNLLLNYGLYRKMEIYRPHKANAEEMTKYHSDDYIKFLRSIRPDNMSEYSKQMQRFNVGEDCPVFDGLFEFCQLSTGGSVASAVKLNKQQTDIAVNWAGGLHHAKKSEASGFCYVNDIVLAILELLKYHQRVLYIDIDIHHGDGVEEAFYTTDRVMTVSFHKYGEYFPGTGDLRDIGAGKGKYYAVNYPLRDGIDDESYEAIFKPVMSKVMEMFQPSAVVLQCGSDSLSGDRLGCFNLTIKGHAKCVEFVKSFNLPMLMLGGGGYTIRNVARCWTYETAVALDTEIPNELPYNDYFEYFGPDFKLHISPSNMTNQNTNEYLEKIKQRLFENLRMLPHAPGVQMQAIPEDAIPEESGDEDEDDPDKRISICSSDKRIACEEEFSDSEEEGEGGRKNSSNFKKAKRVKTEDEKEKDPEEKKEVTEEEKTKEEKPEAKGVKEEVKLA

[8] = system: K562; assay: Cytotoxicity in cell lines; type: cell-based; conditions: Homo sapiens, K562; Table 4; read-out: IC50 K562
Method: (§1) The cytotoxicity of exemplary compounds of the application was tested in multiple cell lines including MV-4-11, MOLM-13, MCF-7, MRC9, K562 and MM.1S. The therapeutic index was evaluated by determining the toxicity of the exemplary compounds in healthy cell lines including fibroblasts and HUVEC.

[9] = system: MOLM-13; assay: Cytotoxicity in cell lines; type: cell-based; conditions: Homo sapiens, MOLM-13; Table 4; read-out: IC50 MOLM-13
Method: as §1

[10] = system: MRC9; assay: Cytotoxicity in cell lines; type: cell-based; conditions: Table 4
Method: as §1

Chain of HDAC11 (Q96DB2 whole entry, canonical isoform): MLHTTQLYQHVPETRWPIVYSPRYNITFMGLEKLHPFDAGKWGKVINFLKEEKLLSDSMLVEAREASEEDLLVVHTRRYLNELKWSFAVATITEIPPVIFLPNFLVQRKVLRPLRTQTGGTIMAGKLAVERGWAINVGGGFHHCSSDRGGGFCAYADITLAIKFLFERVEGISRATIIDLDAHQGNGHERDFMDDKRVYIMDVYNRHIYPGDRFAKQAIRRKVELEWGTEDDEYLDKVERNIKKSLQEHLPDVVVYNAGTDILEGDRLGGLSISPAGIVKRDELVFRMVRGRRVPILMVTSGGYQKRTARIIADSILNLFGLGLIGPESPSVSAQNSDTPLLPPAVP

O=C(NO)c1ccc(CN(Cc2cccnc2)S(=O)(=O)c2cc(F)c(F)c(F)c2F)cc1 [Compound I-18, N-hydroxy-4-((2,3,4,5-tetrafluoro-N-(pyridin-3-ylmethyl)phenylsulfonamido)methyl)benzamide]
IC50 [1]: > 1 µM
IC50 [2]: 0.373 µM
IC50 [3]: > 1 µM
IC50 [4]: > 1 µM
half-life [5]: 1.82 h
Remaining Percentage (%) 0 min ([5]; 0 min): 100%
Remaining Percentage (%) 15 min ([5]; 15 min): 96.3%
Remaining Percentage (%) 30 min ([5]; 30 min): 63.0%
Remaining Percentage (%) 45 min ([5]; 45 min): 54.3%
Remaining Percentage (%) 60 min ([5]; 60 min): 51.3%
Remaining Percentage (%) 120 min ([5]; 120 min): 50.1%
inhibitory activity on a panel of 97 kinases [6]: limited to no inhibitory activity

O=C(NO)c1ccc(CN(C2CC2)S(=O)(=O)c2cc(F)c(F)c(F)c2F)cc1 [Compound I-13, 4-((N-cyclopropyl-2,3,4,5-tetrafluorophenylsulfonamido)methyl)-N-hydroxybenzamide]
IC50 [7]: > 1 µM
IC50 [1]: > 1 µM
IC50 [3]: > 1 µM
IC50 [4]: > 1 µM
IC50 [8]: 7.4 µM
IC50 [9]: 2 µM
IC50 [10]: > 50 µM
